Data published in US5395836A, “8-tricycloalkyl xanthine derivatives” (Kyowa Hakko Kogyo Co., Ltd., priority 1993, dated 1995).
pKi: −log10 of the molar value.

Columns and labels:
[1] = Diuretic Effect; assay type: in vivo, rat (Wistar); conditions: po, 4 hours; for Increase in amount of K+ excreted Δ(%) / Increase in amount of Na+ excreted Δ(%) / Increase in amount of urine Δ(%): control 0; for Na+/K+: control 1.00
Procedure: The experiment was performed by using Wistar rats (male; 150 to 300 g). The rats were starved for 18 hours prior to the administration of a test compound (n=4 to 5). After test compounds were dissolved in 0.4% methanol, 1% dimethylsulfoxide and 0.01N sodium hydroxide/physiological saline, and administered intravenously, the physiological saline (25 ml/kg) was orally administered. Alternatively, test compounds dissolved in the physiological saline (25 ml/kg) was orally administered to the rats. Urine was collected from the rats during 4 hours after the oral administration, and urine volume was measured by a graduated measuring cylinder, and the electrolytes in the urine (Na^+ and K^+) were determined by flame photometer (775 A manufactured by Hitachi, Ltd.).

[2] = biological target: T1, adenosine A1 receptor (Rattus norvegicus, UniProt P25099); assay: Adenosine Receptor Antagonizing Activity (Adenosine A1 Receptor Binding Test); conditions: rat corpus striatum; 3H-CHA 1.1 nM; 25° C., 90 min; Cheng-Prusoff
T1 construct: from tissue; host or cells: rat corpus striatum, washed membrane suspension
T1 sequence (P25099 1-326): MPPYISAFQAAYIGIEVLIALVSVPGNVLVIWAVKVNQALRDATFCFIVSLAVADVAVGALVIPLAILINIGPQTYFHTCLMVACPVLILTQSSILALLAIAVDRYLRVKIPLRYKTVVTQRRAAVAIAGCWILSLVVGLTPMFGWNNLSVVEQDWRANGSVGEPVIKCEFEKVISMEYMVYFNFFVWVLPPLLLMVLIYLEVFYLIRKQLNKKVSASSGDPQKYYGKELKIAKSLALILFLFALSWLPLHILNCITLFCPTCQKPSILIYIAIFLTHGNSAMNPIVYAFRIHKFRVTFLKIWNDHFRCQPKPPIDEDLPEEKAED
Procedure: The test was conducted according to the method of Bruns et al. [Proc. Natl. Acad. Sci. U.S.A., 77., 5547 (1980)] with slight modification.
Corpus striatum of a rat was suspended in ice-cooled 50 mM Tris hydroxymethyl aminomethane hydrochloride (Tris HCl) buffer (pH 7.7) by using Polytron homogenizer (manufactured by Kinematicas Co.). The suspension was centrifuged (50,000×g, 10 minutes), and the precipitate was suspended again in the same amount of 50 mM Tris HCl buffer. The suspension was centrifuged under the same conditions, and the final precipitate was suspended once again in 50 mM Tris HCl buffer to give a tissue concentration of 100 mg (wet weight)/ml. The tissue suspension was allowed to stand in the presence of 0.02 unit/mg tissue of adenosine deaminase (manufacture by Sigma Co.) at 37° C. for 30 minutes. The tissue suspension was centrifuged (50,000×g, 10 minutes) and to the obtained precipitates was added 50 mM Tris HCl buffer to give a tissue concentration of 10 mg (wet weight)/ml.
To 1 ml of the tissue suspension thus prepared, were added 50 μl of cyclohexyladenosine labeled with tritium (^3 H-CHA: 27 Ci/mmol, manufactured by New England Nuclear) (final concentration: 1.1 nM), and 50 μl of a test compound. The resulting mixture was allowed to stand at 25° C. for 90 minutes and then rapidly filtered by suction through a glass fiber filter (GF/C, manufactured by Whatman Co.). The filter was immediately washed three times with 5 ml each of ice-cooled 50 mM Tris HCl buffer, and transferred to a vial, and scintillator (EX-H by Wako Pure Chemical Industries, Ltd.) was added thereto. The radioactivity on the filter was determined with a liquid scintillation counter (manufactured by Packard Instrument Co.).
The inhibition rate (Ki value) of the test compound against the binding of A1 receptors (^3 H-CHA binding) was calculated by the equation of Cheng-Prusoff. [formula]

[3] = Renal-protecting Effect (Glycerol-Induced Renal Failure Model); assay type: in vivo, rat (Wistar); conditions: for Amount of creatinine in blood serum / Amount of uria nitrogen in blood serum: ip, 24 h after glycerol
Procedure: A renal failure is a state where the renal function is lowered and the homeostasis of a body fluid can be no longer maintained. It is known that an acute renal failure characteristic of uriniferous tubule disorder is caused by subcutaneous or intramuscular injection of glycerol to rats [Can. J. Physiol.
Male Wistar rats were kept deprived of water for 18 hours, and served for the test. A test compound was intraperitoneally administered to the rats (dosage: 0.1 ml/100 g). After 30 minutes, the rats were anesthetized with ether and 50% glycerol was subcutaneously administered (dosage: 0.8 ml/100 g) to the rats, pinching the dorsal skin. Twenty four hours after the administration of glycerol, the rats were anesthetized with ether and 5 ml of blood was collected from the abdominal aorta. The collected blood was allowed to stand for 30 minutes or longer and then centrifuged at 3,000 rpm for 10 minutes, and the amounts of the serum creatinine and the serum urine-nitrogen (UN) were determined by auto analyzer (Olympus AU510) [creatinine test (Jaffe method), UN test (enzyme method); both tests were used in Olympus AU500/550 exclusive reagent […].

[4] = 0.03 mg/kg, control 4.55 ± 0.24
[5] = 0.03 mg/kg, control 137.2 ± 5.0
[6] = 0.01 mg/kg, control 3.90 ± 0.24 (compounds 6, 7), 4.35 ± 0.23 (compound 3)
[7] = 0.01 mg/kg, control 124.9 ± 7.5 (compounds 6, 7), 139.7 ± 10.2 (compound 3)

Row | Compound | Increase in amount of K+ excreted Δ(%) ([1]; 0.01 mg/kg) | Increase in amount of Na+ excreted Δ(%) ([1]; 0.01 mg/kg) | Increase in amount of urine Δ(%) ([1]; 0.01 mg/kg) | Na+/K+ ([1]; 0.01 mg/kg) | Increase in amount of K+ excreted Δ(%) ([1]; 1.6 mg/kg) | Increase in amount of Na+ excreted Δ(%) ([1]; 1.6 mg/kg) | Increase in amount of urine Δ(%) ([1]; 1.6 mg/kg) | Na+/K+ ([1]; 1.6 mg/kg) | pKi [2] | Amount of creatinine in blood serum [3, 4] | Amount of uria nitrogen in blood serum [3, 5] | Increase in amount of K+ excreted Δ(%) ([1]; 0.1 mg/kg) | Increase in amount of Na+ excreted Δ(%) ([1]; 0.1 mg/kg) | Increase in amount of urine Δ(%) ([1]; 0.1 mg/kg) | Na+/K+ ([1]; 0.1 mg/kg) | also measured
1 | CCCn1c(=O)c2[nH]c(C34C[C@H]5CC3C[C@@H](C4)[C@H]5O)nc2n(CCC)c1=O (relative stereo) [Compound 4, 8-(cis-9-hydroxy-3tricyclo[3.3.1.0^3,7]nonyl)-1,3-dipropylxanthine] | 43% | 167% | 200% | 1.86 | 35% | 180% | 232% | 2.07 | 9.51 | 2.32 ± 0.48 mg/dL | 75.6 ± 13.9 mg/dL |  |  |  |  | 
2 | CCCn1c(=O)c2[nH]c(C34CC5CC3CC(C4)C5=O)nc2n(CCC)c1=O [Compound 1, 8-(9-Oxo-3-tricyclo[3.3.1.0^3,7]nonyl)-1,3-dipropylxanthine] | 37% | 144% | 149% | 1.78 | 36% | 193% | 258% | 2.15 | 9.43 | 2.51 ± 0.41 mg/dL | 81.4 ± 15.9 mg/dL |  |  |  |  | 
3 | CCCn1c(=O)c2[nH]c(C34CC5CC(C3)C(=O)C4C5)nc2n(CCC)c1=O (stereo not shown) [Compound 2, 8-(6-Oxo-3-tricyclo[3.3.1.0^3,7]nonyl)-1,3-dipropylxanthine] |  |  |  |  | 8% | 188% | 241% | 2.67 | 9.23 | 2.51 ± 0.24 mg/dL | 85.0 ± 8.7 mg/dL | 32% | 177% | 211% | 2.10 | 
4 | CCCn1c(=O)c2[nH]c(C34CC5CC(C3)C(O)C4C5)nc2n(CCC)c1=O (stereo not drawn) [Compound 5, 8-(Trans-6-hydroxy-3-tricyclo[3.3.1.0^3,7]nonyl)-1,3-dipropylxanthine] |  |  |  |  |  |  |  |  | 9.62 |  |  |  |  |  |  | Amount of creatinine in blood serum ([3]; 0.1 mg/kg, control 4.55 ± 0.24 (compound 5), 4.35 ± 0.23 (compound 3)): 2.34 ± 0.24 mg/dL; Amount of uria nitrogen in blood serum ([3]; 0.1 mg/kg, control 137.2 ± 5.0 (compound 5), 139.7 ± 10.2 (compound 3)): 74.4 ± 7.7 mg/dL
5 | CCCn1c(=O)c2[nH]c(C34CC5CC(CC3C5)C4)nc2n(CCCO)c1=O [Compound 6, 3-(3-Hydroxypropyl)-8-(3-tricyclo[3.3.1.0^3,7]nonyl)-1-propylxanthine] |  |  |  |  |  |  |  |  | 9.02 |  |  | 24% | 276% | 396% | 3.03 | Increase in amount of K+ excreted Δ(%) ([1]; 0.025 mg/kg): 5.1%; Increase in amount of Na+ excreted Δ(%) ([1]; 0.025 mg/kg): 111%; Increase in amount of urine Δ(%) ([1]; 0.025 mg/kg): 134%; Na+/K+ ([1]; 0.025 mg/kg): 2.00; Amount of creatinine in blood serum [3, 6]: 2.23 ± 0.15 mg/dL; Amount of uria nitrogen in blood serum [3, 7]: 65.4 ± 5.6 mg/dL
6 | CCCn1c(=O)c2[nH]c(C34CC5CC(CC3C5)C4)nc2n(CC(C)O)c1=O (stereo not shown) [Compound 7, 3-(2-hydroxypropyl) -8-(3tricyclo[3.3.1.0^3,7]nonyl)-1-propylxanthine] | 33% | 97% | 140% | 1.48 |  |  |  |  | 8.21 |  |  | 23% | 138% | 200% | 1.93 | Amount of creatinine in blood serum [3, 6]: 2.28 ± 0.22 mg/dL; Amount of uria nitrogen in blood serum [3, 7]: 70.0 ± 9.8 mg/dL
7 | CCCn1c(=O)c2[nH]c(C34CC5CC(CC(O)(C5)C3)C4)nc2n(CCC)c1=O [Compound 8, 8-(3-Hydroxy-1-tricyclo[3.3.1.1^3,7]decyl)-1,3-dipropylxanthine] |  |  |  |  |  |  |  |  | 8.29 |  |  |  |  |  |  | 
8 | Cn1c(=O)c2[nH]cnc2n(C)c1=O [aminophylline, reference compound] |  |  |  |  |  |  |  |  |  |  |  |  |  |  |  | effect of suppressing the increase ([3]; i.p., 10 mg/kg): weak effect of suppressing the increase
9 | NS(=O)(=O)c1cc(C(=O)O)c(NCc2ccco2)cc1Cl [furosemide, reference compound] |  |  |  |  |  |  |  |  |  |  |  |  |  |  |  | effect on serum creatinine ([3]; i.p., 10 mg/kg): tendency to increase the serum creatinine
